From patent US6908930B2, “4-substituted 7-AZA-indolin-2-ones and their use as protein kinase inhibitors” (Sugen, Inc., priority 1999, dated 2005)
pIC50: −log10 of the molar value. Counter-ions that a name gives are not always drawn.

molecular target: T1, HER-2 (Homo sapiens, UniProt P04626); assay: Assay for modulation of HER-2 activity in whole cells (ELISA); assay type: cell-based; conditions: EGFR/HER-2chimera/#T3-C7 cell lines, EGF stimulated; read-out: HER-2 kinase IC50
T1 construct: expressed in mouse 3T3 (clone C7) cells; P00533 (Epidermal growth factor receptor)
Method: Using the following reagents, supplies, and method, the ability of compounds of the invention to affect the activity of HER-2 in whole cells in an ELISA format can be assigned.
EGFR/HER-2chimera/#T3-C7 cell lines are used for this assay. Choose dishes having 80-90% confluence for the experiment. Collect cells by trypsinization and centrifuge at 1000 rpm at room temperature for 5 minutes.
Resuspend cells in starve medium and count with trypan blue. Only viability above 90% is acceptable. Seed cells in starve medium at a density of 2,500 cells per well, 90 μL per well, in a 96 well microtiter plate. Incubate seeded cells in 5% CO2 at 37° C. overnight. Start the assay two days after seeding.
Samples are diluted directly into a polypropylene plate containing starve-DMEM (non-sterile is okay). This dilution will be 1:10 or greater, depending on the samples being screened. The same amount of DMSO is put into the control wells. […] are then transferred to the cell plate at a 1:10 dilution (10 μL of sample and media into 90 μL of starve media). The final DMSO concentration will be 1% or lower.
Ten samples are put into wells 2-11 of row A of the NUNC 96 well polypropylene plate. These wells contain straight starve-DMEM. For a 1:10 dilution, one would put 10 μL of drug into 90 μL of media. The rest of the wells (including the controls) will have a DMSO/media mixture. The percentage of DMSO in this mixture is determined by the first dilution factor, in this case 1:10. The DMSO concentration is therefore 10%. An equal amount of drug and media from row A is put into row B, containing DMSO and media. The same amount is then taken out and put into row C. This is repeated for all rows. These are 1:2 dilutions. All wells are then transferred to the cell plate at a 1:10 dilution (10 μL of sample and media into 90 μL of starve-DMEM. The final DMSO concentration will be 1% or lower. […]
After a 2 hour incubation with the drug, add prepared EGF ligand to cells at 50 μL per well, for a final concentration of 50 nM. Positive control wells (8) receive the same amount of EGF. […] Incubate at 37° C. for 10 minutes.
Remove drug, EGF, and DMEM by dumping in sink. Wash cells once with PBS.
Transfer HNTG* to cells, 100 μL per well. Place on ice for 5 minutes. Meanwhile, remove blocking buffer from ELISA plate and wash as described above. With a pipette tip securely fitted to a micropipettor, scrape cells from plate and homogenize cell material by repeatedly aspirating and dispensing the HNTG* lysis buffer. Transfer lysate to a coated, blocked, washed ELISA plate. Alternatively, one may use a Costar transfer cartridge to transfer lysate to the ELISA plate. Incubate, shaking, at room temperature for one hour.
Remove lysate by dumping in sink, then wash as described earlier. Transfer freshly diluted anti-phosphotyrosine (anti-Ptyr) antibody (1:3000 in TEST) to ELISA plate, 100 μL per well. Incubate, shaking, at room temperature, for 30 minutes.
Remove anti-Ptyr antibody by dumping in sink, then wash as described earlier. Transfer freshly diluted BIOSOURCE antibody to ELISA plate, (1:8000 in TEST), 100 μL per well. Incubate, shaking, at room temperature for 30 minutes.
Remove BIOSOURCE antibody by dumping in sink, then wash as described earlier. Transfer freshly prepared ABTS/H2O2 solution to ELISA plate, […]. Incubate 5-10 minutes while shaking. Remove any bubbles and if necessary, stop reaction with the addition of 100 μL of 0.2 M HCl per well.
Read assay on Dynatech MR7000 ELISA reader. Test Filter: […]; Reference Filter: […]. A preferred template for the placement of controls in this experiment is provided below: […]

T1 sequence (P04626 720-987 limits assumed): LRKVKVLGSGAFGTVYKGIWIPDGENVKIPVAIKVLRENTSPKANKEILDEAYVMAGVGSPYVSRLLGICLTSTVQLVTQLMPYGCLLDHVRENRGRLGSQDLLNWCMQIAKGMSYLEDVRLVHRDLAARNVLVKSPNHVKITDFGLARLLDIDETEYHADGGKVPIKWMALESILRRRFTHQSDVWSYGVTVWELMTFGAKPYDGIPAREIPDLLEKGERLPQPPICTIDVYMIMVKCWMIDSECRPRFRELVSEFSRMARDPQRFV

Point of comparison: CC(C)c1cc(CCC(=O)O)c(/C=C2\C(=O)Nc3ncnc(Nc4ccc(F)c(Cl)c4)c32)[nH]1 [Formula 27], pIC50 6.19. Against it:
- Cc1cc(C(=O)NCCN2CCOCC2)[nH]c1C=C1C(=O)Nc2nccc(Nc3ccc(F)c(Cl)c3)c21 [Formula 3, 5-[4-(3-CHLORO-4-FLUORO-PHENYLAMINO)-2-OXO-1,2-DIHYDRO-PYRROLO[2,3-B]PYRIDIN-3-YLIDENEMETHYL]-4-METHYL-1H-PYRROLE-2-CARBOXYLIC ACID (2-MORPHOLIN-4-YL-ETHYL)-AMIDE] — 0.38 log units higher, 6.57
- Cc1cc(C(=O)NCCN2CCOCC2)[nH]c1C=C1C(=O)Nc2ncnc(Nc3ccc(F)c(Cl)c3)c21 [Formula 4, 5-[4-(3-CHLORO-4-FLUORO-PHENYLAMINO)-6-OXO-6,7-DIHYDRO-PYRROLO[2,3-D]PYRIMIDIN-5-YLIDENEMETHYL]-4-METHYL-1H-PYRROLE-2-CARBOXYLIC ACID (2-MORPHOLIN-4-YL-ETHYL)-AMIDE HYDROCHLORIDE] — 0.61 log units higher, 6.80
- O=C1Nc2ncnc(N3CCCCC3)c2C1=Cc1ccc(C(=O)NCCN2CCOCC2)[nH]1 [Formula 5, 5-(6-OXO-4-PIPERIDIN-1-YL-6,7-DIHYDRO-PYRROLO[2,3-D]PYRIMIDIN-5-YLIDENEMETHYL)-1H-PYRROLE-2-CARBOXYLIC ACID (2-MORPHOLIN-4-YL-ETHYL)-AMIDE] — 1.98 log units lower, 4.21
- Cc1cc(C(=O)NCCN2CCOCC2)[nH]c1C=C1C(=O)Nc2ncnc(Nc3ccc4c(ccn4Cc4ccccc4)c3)c21.Cl [Formula 6, 5-[4-(1-BENZYL-1H-INDOL-5-YLAMINO)-6-OXO-6,7-DIHYDRO-PYRROLO[2,3-D]PYRIMIDIN-5-YLIDENEMETHYL]-4-METHYL-1H-PYRROLE-2-CARBOXYLIC ACID (2-MORPHOLIN-4-YL-ETHYL)-AMIDE HYDROCHLORIDE] — 0.70 log units higher, 6.89
- Cc1[nH]c(C=C2C(=O)Nc3ncnc(Nc4ccc(F)c(Cl)c4)c32)c(C)c1CCCN1CCOCC1 [Formula 7, 4-(3-CHLORO-4-FLUORO-PHENYLAMINO)-5-[3,5-DIMETHYL-4-(3-MORPHOLIN-4-YL-PROPYL)-1H-PYRROL-2-YLMETHYLENE]-5,7-DIHYDRO-PYRROLO[2,3-D]PYRIMIDIN-6-ONE HYDROCHLORIDE] — 1.21 log units higher, 7.40
- Cc1nc[nH]c1C=C1C(=O)Nc2ncnc(Nc3ccc(F)c(Cl)c3)c21 [Formula 8] — 0.81 log units higher, 7.00
- Cc1cc(C)c(C=C2C(=O)Nc3ncnc(Nc4ccc(F)c(Cl)c4)c32)[nH]1 [Formula 9] — 1.81 log units higher, 8.00
- Cc1cc(C(=O)NCCN2CCOCC2)[nH]c1C=C1C(=O)Nc2ncnc(N3CCN(C)CC3)c21 [Formula 10, 4-METHYL-5-[4-(4-METHYL-PIPERAZIN-1-YL)-6-OXO-6,7-DIHYDRO-PYRROLO[2,3-D]PYRIMIDIN-5-YLIDENEMETHYL]-1H-PYRROLE-2-CARBOXYLIC ACID (2-MORPHOLIN-4-YL-ETHYL)-AMIDE] — lower, < 4.00
- Cc1nc[nH]c1C=C1C(=O)Nc2ncnc(N3CCN(C)CC3)c21 [Formula 11] — lower, < 4.00
- O=C1Nc2ncnc(Nc3ccc4c(ccn4Cc4ccccc4)c3)c2C1=Cc1ccc(C(=O)NCCN2CCOCC2)[nH]1 [Formula 12, 5-[4-(1-BENZYL-1H-INDOL-5-YLAMINO)-6-OXO-6,7-DIHYDRO-PYRROLO[2,3-D]PYRIMIDIN-5-YLIDENEMETHYL]-1H-PYRROLE-2-CARBOXYLIC ACID (2-MORPHOLIN-4-YL-ETHYL)-AMIDE HYDROCHLORIDE] — 0.36 log units higher, 6.55
- O=C1Nc2ncnc(N3CCOCC3)c2C1=Cc1ccc(C(=O)NCCN2CCOCC2)[nH]1 [Formula 13, 5-(4-MORPHOLIN-4-YL-6-OXO-6,7-DIHYDRO-PYRROLO[2,3-D]PYRIMIDIN-5-YLIDENEMETHYL)-1H-PYRROLE-2-CARBOXYLIC ACID (2-MORPHOLIN-4-YL-ETHYL)-AMIDE] — lower, < 4.00
- Cc1nc[nH]c1C=C1C(=O)Nc2ncnc(N3CCOCC3)c21 [Formula 14] — lower, < 4.00
- O=C1Nc2ncnc(Nc3ccc(F)c(Cl)c3)c2C1=Cc1ccc(C(=O)NCCN2CCOCC2)[nH]1 [Formula 15, 5-[4-(3-CHLORO-4-FLUORO-PHENYLAMINO)-6-OXO-6,7-DIHYDRO-PYRROLO[2,3-D]PYRIMIDIN-5-YLIDENEMETHYL]-1H-PYRROLE-2-CARBOXYLIC ACID (2-MORPHOLIN-4-YL-ETHYL)-AMIDE] — 0.70 log units higher, 6.89
- C#Cc1cccc(Nc2ncnc3c2C(=Cc2ccc(C(=O)NCCN4CCOCC4)[nH]2)C(=O)N3)c1 [Formula 16, 5-[4-(3-ETHYNYL-PHENYLAMINO)-6-OXO-6,7-DIHYDRO-PYRROLO[2,3-D]PYRIMIDIN-5-YLIDENEMETHYL]-1H-PYRROLE-2-CARBOXYLIC ACID (2-MORPHOLIN-4-YL-ETHYL)-AMIDE HYDROCHLORIDE] — 0.20 log units lower, 5.99
- C#Cc1cccc(Nc2ncnc3c2C(=Cc2[nH]c(C(=O)NCCN4CCOCC4)cc2C)C(=O)N3)c1 [Formula 17, 5-[4-(3-ETHYNYL-PHENYLAMINO)-6-OXO-6,7-DIHYDRO-PYRROLO[2,3-D]PYRIMIDIN-5-YLIDENEMETHYL]-4-METHYL-1H-PYRROLE-2-CARBOXYLIC ACID (2-MORPHOLIN-4-YL-ETHYL)-AMIDE] — 0.81 log units higher, 7.00
- C#Cc1cccc(Nc2ncnc3c2C(=Cc2[nH]c(C)c(CCCN4CCOCC4)c2C)C(=O)N3)c1 [Formula 18] — 1.33 log units higher, 7.52
- Cc1c(C(=O)N2CCOCC2)c[nH]c1/C=C1\C(=O)Nc2ncnc(Nc3ccc(F)c(Cl)c3)c21 [Formula 31] — 0.24 log units higher, 6.43
- Cc1cc(C(=O)N2CCOCC2)[nH]c1/C=C1\C(=O)N(C)c2ncnc(Nc3ccc(F)c(Cl)c3)c21 [Formula 34] — lower, < 4.70
- Cc1cc(C(=O)N2CCN(C)CC2)[nH]c1/C=C1\C(=O)N(C)c2ncnc(Nc3ccc(F)c(Cl)c3)c21 [Formula 36] — lower, < 4.70
- Cc1cc(C=C2C(=O)Nc3ncnc(Nc4ccc(F)c(Cl)c4)c32)[nH]c1C(=O)N1CCOCC1 [Formula 37] — 0.22 log units lower, 5.97
